Measurements from US6844465B2, “Method for preparing highly stable crystals of aspartame derivative” (Ajinomoto Co., Inc., priority 1998, dated 2005).

Legend:
[1] = Stability test at 70° C. of crystals (remaining ratio of N-(3,3-dimethylbutyl)-APM); assay type: physicochemical
Method: Then, the obtained G-type crystals, D-type crystals and A-type crystals of N-(3,3-dimethylbutyl)-APM were tested at 70° C., concerning their stability. […] The relationship between the storage time and the remaining ratio of N-(3,3-dimethylbutyl)-APM in this test will be shown below in Table 1.

[2] = on the weight basis, cited from earlier work

COC(=O)[C@H](Cc1ccccc1)NC(=O)[C@H](CC(=O)O)NCCC(C)(C)C [G-type crystals, N-[N-(3,3-dimethylbutyl)-L-α-aspartyl]-L-phenylalanine methyl ester]
Remaining Ratio (wt. %) ([1]; time elapsed 0 hrs, listed as G): 96 wt. %
Remaining Ratio (wt. %) ([1]; time elapsed 100 hrs, listed as G): 48 wt. %
Remaining Ratio (wt. %) ([1]; time elapsed 271 hrs): 18 wt. %
Remaining Ratio (wt. %) ([1]; time elapsed 271 hrs, listed as G): 18 wt. %

COC(=O)[C@H](Cc1ccccc1)NC(=O)[C@H](CC(=O)O)NCCC(C)(C)C [D-type crystals, N-[N-(3,3-dimethylbutyl)-L-α-aspartyl]-L-phenylalanine methyl ester]
Remaining Ratio (wt. %) ([1]; time elapsed 0 hrs, listed as D): 95 wt. %
Remaining Ratio (wt. %) ([1]; time elapsed 100 hrs, listed as D): 96 wt. %
Remaining Ratio (wt. %) ([1]; time elapsed 271 hrs): 77 wt. %
Remaining Ratio (wt. %) ([1]; time elapsed 271 hrs, listed as D): 77 wt. %

COC(=O)[C@H](Cc1ccccc1)NC(=O)[C@H](CC(=O)O)NCCC(C)(C)C [A-type crystals, N-[N-(3,3-dimethylbutyl)-L-α-aspartyl]-L-phenylalanine methyl ester]
Remaining Ratio (wt. %) ([1]; time elapsed 0 hrs, listed as A): 95 wt. %
Remaining Ratio (wt. %) ([1]; time elapsed 100 hrs, listed as A): 94 wt. %
Remaining Ratio (wt. %) ([1]; time elapsed 271 hrs): 96 wt. %
Remaining Ratio (wt. %) ([1]; time elapsed 271 hrs, listed as A): 96 wt. %

COC(=O)[C@H](Cc1ccccc1)NC(=O)[C@H](CC(=O)O)NCCC(C)(C)C [N-(3,3-dimethylbutyl)-ATM, N-[N-(3,3-dimethylbutyl)-L-α-aspartyl]-L-phenylalanine methyl ester]
sweetening potency relative to aspartame ([2]; times that of aspartame): at least 50 times
sweetening potency relative to sucrose (table sugar) ([2]; times that of sucrose): about 10,000 times
